According to patent US10219528B2 (Zinpro Corporation, priority 2016, dated 2019):

Assays:
[1] = Solubility test of folate precipitates suspended in water at pH 7.0, filtered, insoluble solid weighed; assay type: physicochemical
Text: In the parent application is was noticed that when soluble metal salts were mixed with folic acid there would be a precipitate forming after the addition of the metal salt. This precipitate was isolated and its solubility measured. According to the following procedure: The precipitates were suspended in water and the pH was adjusted to 7.0 with dilute HCl. […] The solids were dried and weighed to determine the mass of insoluble product. Very similar molar amounts of folic acid are used in this procedure.

[2] = Sheep serum folic acid concentrations after feeding test articles
Text: The animals were separated into groups and housed in a barn with access to a pasture. The dosing regime was as follows. […] The sheep were fed the test feeds for fourteen (14) days.
Example 22 is a sheep study using the protocol of Example 20 but with the Mn and iron mixtures of Example 5 and 7, respectively. […] In this test the ewes were fed the concentrate metal folate mixture dried without any carrier but mixed on ground corn for feeding.
The liquid mixtures were then sprayed directly on ground corn.

[3] = suspended in water at pH 7.0, stirred, filtered, solid dried and weighed

## Zinc folate
[1]; [3]
  Insoluble %: 99%
[1]; suspended in water at pH 7.0, stirred, filtered, solid dried and weighed, listed as Zinc folate
  Insoluble %: 99%

## Iron folate
[1]; suspended in 100 mL water, pH adjusted to 7.0, stirred, filtered, solid dried and weighed, about 3 g folate equivalents (6.8 mmols)
  Insoluble Mass: 3.74 g
[1]; [3]
  Insoluble %: 96%
[1]; suspended in water at pH 7.0, stirred, filtered, solid dried and weighed, listed as Iron folate
  Insoluble %: 96%

## Zinc Folate Mixture [Example 1]
[2]; 30 mg folic acid equivalent per head per day mixed with ground corn, 14 days, pre vs post treatment (FIGS. 1-4), mean or median
  serum folic acid concentrations: increased the greatest
[2]; comparison with folic acid alone
  blood serum levels of folic acid compared to folic acid alone: performed better than folic acid alone

## Nc1nc2ncc(CNc3ccc(C(=O)N[C@@H](CCC(=O)O)C(=O)O)cc3)nc2c(=O)[nH]1 [Folic Acid, folic acid, reference compound]
[1]; 15 min, pH 7
  Insoluble %: 0.33%
[1]; pH 7
  solubility at pH of 7: soluble
